Measurements published in patent US20130336940A1, “MODIFIED PIG ISLETS FOR DIABETES TREATMENT” (UNIVERSITE CATHOLIQUE DE LOUVAIN, priority 2011, published 2013).

What was measured:
[1] = test system: pig pancreatic islets; assay: Histomorphometry of pancreatic islets prior to isolation (alpha/beta cells) after STZ; type: in vivo
Method: (§1) Five doses (0, 30, 50, 75, 100 mg/kg) of filter-sterilized Streptozotocin (STZ) (Sigma, Bornem, Belgium) were tested. STZ was solubilised in citrate buffer (25% v/v Na citrate, 23% v/v citric acid, 52% v/v H2O, pH 4.5) and filtered before injection in the external jugular vein (Dufrane, Transplantation, 2006).
The cellular composition of islets was determined by immunohistochemistry in small samples of human and pig pancreas taken during dissection of the gland. After overnight fixation in formol at room temperature, the small biopsies were embedded in paraffin and cut in 5 μm sections. These sections were thereafter deparaffinized, rehydrated and washed with a solution of Tris-HCl-Buffered solution 0.05 mol/L (TBS, pH 7.4). After inactivation of endogenous peroxidase by a 30-minute incubation in 0.3% H2O2, the sections were incubated with 10% normal goat serum (NGS) in TBS for 30 minutes. The sections were then incubated overnight at 4° C. with glucagon rabbit polyclonal antibody (BD Bioscience, Erembodegem, Belgium) diluted at 1:100. After washes in TBS, the slides were incubated for 30 minutes with anti-rabbit-IgG (1:500) and these antibodies detected by EnVision anti-rabbit system (Dako A/S, Glostrup, Denmark) for 1 hour at room temperature. […] The glucagon staining was followed by the detection of the β-cells by alkaline phosphatase anti-alkaline phosphatase system (APAAP). After washing, aspecific sites were again inhibited by a 30 minutes incubation with 10% normal goat serum (NGS) in TBS. The slides were thereafter incubated overnight with mouse insulin monoclonal antibody (Abcam, Cambridge, UK) diluted at 1:800.
Islets from human and pig pancreas were compared for cellular proportion and geometric distribution of α and β cells (centre/periphery). Following the islets size, 3 groups of 5 islets (50-99, 100-149 and 150-200 μm) were compared in native/modified young pig versus human pancreas.
The number of small β-cell clusters (≦3 insulin-immunoreactive cells) in the total area of the slide was also assessed. The number of these clusters was manually counted through the entire slide. The area of the slide was measured with ImageJ 1.43i software after capture of pictures of slides with a camera Nikon Coolscan 5000, accessory FH-G1) and calibrated with a stage micrometer to correspond to the number of pixels evidenced on the image analyser.

[2] = test system: pig pancreas; assay: Pancreatic hormonal content for insulin/glucagon (RIA) after STZ; type: in vivo
Method: as §1
For pancreatic hormonal content, insulin and glucagon were first extracted from small biopsies of pancreas taken in the 3 zones (head, body, tail) before being quantified by radio immuno assay (RIA).
For the extraction, ˜1 g of pancreas was cut into small fragments (˜1-2 mm^3) and 5 mL of a solution composed of 75.75% CH3CH2OH, 24.22% H2O, 0.03% HCl were added. The following steps were performed with the samples kept on ice. Samples were mixed (Ultra-Turrax T25 [Janke & Kunkel IKA—Labortechnik, Staufen, Germany]) for 20 seconds 4 times and 5 mL of a solution of 75% CH3CH2OH, 22% H2O, 3% HCl were added to the mixture. The samples were then sonicated 4×20 seconds (Sonifier B 12 [Branson Sonic Power Company, Danbury, Conn., USA]) and centrifugated 10 minutes at 4° C. at 1500 rpm. The first supernatant formed was removed and kept at −20° C. 2 mL of a solution of 75% CH3CH2OH, 23.5% H2O, 1.5% HCl were added to the precipitate and a second step of sonication was performed. The samples were then kept at −20° C. overnight. After a step of centrifugation 10 minutes at 4° C. at 1500 rpm, the second supernatant was removed and kept at −20° C. Thereafter, 2 mL of a solution of 75% CH3CH2OH, 23.5% H2O, 1.5% HCl were added to the precipitate and the mixture was sonicated and centrifuged 10 minutes at 4° C. at 1500 rpm and the third supernatant removed. The three supernatants were then pooled and constituted the pancreas extract. […] The supernatants were immediately removed and the contents of insulin and glucagon were determined by a Wallac Wizard 1470 Automatic gamma counter (GMI Inc, Ramsey, Minn., USA) for 1 minute.

[3] = test system: monkeys; conditions: cited from earlier work
[4] = STZ 50 mg/kg, by linear regression
[5] = STZ 75 mg/kg, islets of 50-100 μm, prior to isolation

## CN(N=O)C(=O)N[C@H]1C(O)O[C@H](CO)[C@@H](O)[C@@H]1O (mixture of isomers) [STZ, Streptozotocin]
[1]; [4]
  theoretical increase in the proportion of α cells: 30%
  theoretical reduction of the proportion of β cells: 30%
[1]; [5]
  number of alpha cells per islet in comparison to humans: higher number of alpha cells
  number of beta cells per islet in comparison to humans: lower number of beta cell
[1]; STZ 100 mg/kg, islets of 50-100 μm, prior to isolation
  number of beta cells per islet in comparison to humans: lower number of beta cells
[1]; STZ 30-50 mg/kg, islets of 50-100 μm and 150-200 μm, prior to isolation
  number of alpha cells per islet in comparison to humans: lower number of alpha cells per islet
[1]; STZ 30-50 mg/kg, large islets (150-200 μm), prior to isolation
  alpha cell proportion in comparison to human islets: lower alpha cell proportion
[1]; STZ 75-100 mg/kg, each islet size, prior to isolation
  proportion of alpha cells per islet in comparison to humans: higher proportion of alpha cells
[1]; STZ-treated pig pancreas
  beta cell regeneration (from duct or exocrine tissue): No sign of beta cell regeneration
[1]; from doses of 30 mg/kg STZ, prior to isolation
  number of α and β cells per islet: increased significantly
[2]; STZ 30 mg/kg, by linear regression
  theoretical reduction of the pancreatic insulin content: 30%
[2]; STZ 30/50/75 mg/kg, 3 months post-STZ treatment
  pancreatic glucagon content, humans vs treated pigs: higher in humans
[2]; STZ 75-100 mg/kg
  pancreatic insulin content: significant reduction
[3]; after STZ treatment, monkeys
  number of α-cells: increased
[3]; after long-term diabetes (>53 days), treated primates
  increase of glucagon mass: ~89%
